Measured values taken from patent EP4653437A2 (Innovo Therapeutics Inc., priority 2023, dated 2024).

Legend:
[1] = target: T1, human 15-PGDH (Homo sapiens, UniProt P15428); experiment: Evaluation of 15-PGDH inhibitory activity (fluorescence enzyme assay, NAD+/PGE2); assay type: biochemical; details: human 15-PGDH enzyme, fluorescence Vmax
T1 construct: purchased R&D System 5660-DH
T1 sequence (P15428 1-266): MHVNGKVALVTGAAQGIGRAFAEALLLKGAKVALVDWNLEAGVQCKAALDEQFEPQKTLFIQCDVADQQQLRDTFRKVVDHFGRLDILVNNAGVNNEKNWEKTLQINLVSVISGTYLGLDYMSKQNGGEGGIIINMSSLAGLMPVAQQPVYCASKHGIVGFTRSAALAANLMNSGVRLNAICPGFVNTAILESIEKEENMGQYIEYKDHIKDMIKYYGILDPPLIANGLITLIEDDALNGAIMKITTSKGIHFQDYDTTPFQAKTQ
Procedure: 15-PGDH inhibition activity of Example compounds was measured as follows. 6.7 ng of human 15-PGDH (R&D System# 5660-DH) enzyme (10 µL) was added to a black 96 well plate, 60 µL of buffer (50 mM Tris-HCl, pH 7.5, 0.01% Tween 20) was added, and 10 µL of 200 µM β-Nicotinamide adenine dinucleotide sodium salt (Sigma, Cat# N0632-5G) was added. 10 µL of (10x) compound solution in DMSO was added and reacted for 10 minutes at room temperature.

[2] = test system: A549 cells; experiment: Measurement of PGE2-increasing activity in A549 cells (IL-1β stimulated, PGE2 quantified in supernatant); assay type: cell-based; details: Homo sapiens, 24 h; concentration of 1 µM of each compound; IL-1β treated A549 cells; read-out: Increased PGE2 production in A549 cells
Procedure: A549 cells were prepared at a cell number of 1 x 10^5/mL in F12K medium containing 10% FBS (Fetal Bovine Serum), and 2 x 10^4/200 µL was added to each well of a 96-well cell culture plate, and then cultured in an incubator with 5% CO2 at 37 °C for 24 hours. After the culture was complete and all F12K medium was removed, all wells were washed once with 100 µL of PBS, and treated with 160 µL of serum-free F12K medium. Then, 20 µL of IL-1β diluted 10-fold to a concentration of 1 ng/mL in serum-free F12K medium was treated to wells to be treated with IL-1β, and 20 µL of serum-free F12K medium was treated to wells not treated with IL-1β. For the wells to be treated with the compound, 20 µL of the compound dissolved in 100% DMSO was diluted to a concentration 10 times of the desired compound concentration in serum-free F12K medium so that the final DMSO concentration treated to the cells was 0.1%, and for the wells not to be treated with the compound, 20 µL of DMSO diluted in serum-free F12K medium so that the final DMSO concentration treated to the cells was 0.1% was treated. In order to confirm the increase or decrease in the secretion amount of PGE2 in the supernatant collected after culturing for 24 hours in an incubator with 5% CO2 at 37 °C, PGE2 was quantified using the Prostaglandin E2 Parameter (SKGE004B).

SMILES | IC50 [1] [nM] | fold induction at 1 µM [2]
Cc1noc(C)c1-c1cc(-c2cccc3c(C(=O)N4CCCCC4)cnn23)cc(N2CCOC2=O)n1 [Example 368, 3-(6-(3,5-dimethylisoxazol-4-yl)-4-(3-(piperidine-1-carbonyl)pyrazolo[1,5-a]pyridin-7-yl)pyridin-2-yl)oxazolidin-2-one] | ≤ 100 | > 1.5
O=C(Cc1cncnc1)Nc1cncc(-c2cccc3c(C(=O)N4CCCCC4)cnn23)c1 [Example 403, N-(5-(3-(piperidine-1-carbonyl)pyrazolo[1,5-a]pyridin-7-yl)pyridin-3-yl)-2-(pyrimidin-5-yl)acetamide] | ≤ 100 | > 1.5
O=C(c1cnn2c(-c3cncc(-c4noc(=O)[nH]4)c3)cccc12)N1CCCCC1 [Example 297, 3-(5-(3-(piperidine-1-carbonyl)pyrazolo[1,5-a]pyridin-7-yl)pyridin-3-yl)-1,2,4-oxadiazol-5(4H)-one] | ≤ 100 | < 1.5
COc1cccc(Sc2cccc3c(C(=O)N4CCCCC4)cnn23)c1 [Example 194, (7-((3-methoxyphenyl)thio)pyrazolo[1,5-a]pyridin-3-yl)(piperidin-1-yl)methanone] | ≤ 100 | < 1.5
O=C(c1cnn2c(-c3csc4ccccc34)cccc12)N1CCCCC1 [Example 124, (7-(benzo[b]thiophen-3-yl)pyrazolo[1,5-a]pyridin-3-yl)(piperidin-1-yl)methanone] | ≤ 100 | > 1.5
O=C(Cc1cccnc1)Nc1cncc(-c2cccc3c(C(=O)N4CCCCC4)cnn23)c1 [Example 327, N-(5-(3-(piperidine-1-carbonyl)pyrazolo[1,5-a]pyridin-7-yl)pyridin-3-yl)-2-(pyridin-3-yl)acetamide] | ≤ 100 | > 1.5
CNC(=O)c1ccc(-c2cccc3c(C(=O)N4CCCCC4)cnn23)cc1 [Example 58, N-methyl-4-(3-(piperidine-1-carbonyl)pyrazolo[1,5-a]pyridin-7-yl)benzamide] | ≤ 100 | > 1.5
Cn1nccc1-c1cc(-c2cccc3c(C(=O)N4CCCCC4)cnn23)cc(N2CCOC2=O)n1 [Example 367, 3-(6-(1-methyl-1H-pyrazol-5-yl)-4-(3-(piperidine-1-carbonyl)pyrazolo[1,5-a]pyridin-7-yl)pyridin-2-yl)oxazolidin-2-one] | ≤ 100 | > 1.5
CN1CCN(C(=O)c2cncc(-c3cccc4c(C(=O)N5CCCCC5)cnn34)c2)CC1 [Example 49, (4-methylpiperazin-1-yl)(5-(3-(piperidine-1-carbonyl)pyrazolo[1,5-a]pyridin-7-yl)pyridin-3-yl)methanone] | ≤ 100 | > 1.5
Cc1nc(-c2cc(-c3cccc4c(C(=O)N5CCCCC5)cnn34)cc([N+](=O)[O-])c2)no1 [Example 330, (7-(3-(5-methyl-1,2,4-oxadiazol-3-yl)-5-nitrophenyl)pyrazolo[1,5-a]pyridin-3-yl)(piperidin-1-yl)methanone] | ≤ 100 | > 1.5
O=C(c1cnn2c(-c3ccnc(N4CC(F)C4)c3)cccc12)N1CCCCC1 [Example 257, (7-(2-(3-fluoroazetidin-1-yl)pyridin-4-yl)pyrazolo[1,5-a]pyridin-3-yl)(piperidin-1-yl)methanone] | ≤ 100 | < 1.5
Nc1nn2c(-c3ccc4c(c3)C(=O)NCC4)cccc2c1C(=O)N1CCCCC1 [Example 159, 7-(2-amino-3-(piperidine-1-carbonyl)pyrazolo[1,5-a]pyridin-7-yl)-3,4-dihydroisoquinolin-1(2H)-one] | 100 to 1000 | > 1.5
N#Cc1cccc(-c2cccc3c(C(=O)N4CCCCC4)cnn23)c1 [Example 6, 3-(3-(piperidine-1-carbonyl)pyrazolo[1,5-a]pyridin-7-yl)benzonitrile] | ≤ 100 | > 1.5
Cc1noc(C)c1-c1ncc(-c2cccc3c(C(=O)N4CCCCC4)cnn23)cc1F [Example 381, [7-[6-(3,5-dimethylisoxazol-4-yl)-5-fluoro-3-pyridyl]pyrazolo[1,5-a]pyridin-3-yl]-(1-piperidyl)methanone] | ≤ 100 | > 1.5
O=C(c1cnn2c(-c3ccc(-c4ccoc4)cc3)cccc12)N1CCCCC1 [Example 302, [7-[4-(3-furyl)phenyl]pyrazolo[1,5-a]pyridin-3-yl]-(1-piperidyl)methanone] | ≤ 100 | < 1.5
O=C1NCc2ccc(-c3cccc4c(C(=O)N5CCC6(CCC6)C5)cnn34)cc21 [Example 391, 6-(3-(6-azaspiro[3.4]octane-6-carbonyl)pyrazolo[1,5-a]pyridin-7-yl)isoindolin-1-one] | ≤ 100 | > 1.5
Cc1ncc(-c2cc(-c3cccc4c(C(=O)N5CCCCC5)cnn34)cc(N3CCOCC3)n2)cn1 [Example 377, (7-(2-(2-methylpyrimidin-5-yl)-6-morpholinopyridin-4-yl)pyrazolo[1,5-a]pyridin-3-yl)(piperidin-1-yl)methanone] | ≤ 100 | > 1.5
O=C(c1cnn2c(-c3ccc(N4CCC4)nc3)cccc12)N1CCCCC1 [Example 206, (7-(6-(azetidin-1-yl)pyridin-3-yl)pyrazolo[1,5-a]pyridin-3-yl)(piperidin-1-yl)methanone] | ≤ 100 | > 1.5
O=C(c1cnn2c(-c3ccc4c(=O)[nH]ccc4c3)cccc12)N1CCCCC1 [Example 138, 6-(3-(piperidine-1-carbonyl)pyrazolo[1,5-a]pyridin-7-yl)isoquinolin-1(2H)-one] | ≤ 100 | > 1.5
Cc1nc(-c2ccc(-c3cccc4c(C(=O)N5CCCCC5)cnn34)cc2F)no1 [Example 303, [7-[3-fluoro-4-(5-methyl-1,2,4-oxadiazol-3-yl)phenyl]pyrazolo[1,5-a]pyridin-3-yl]-(1-piperidyl)methanone] | ≤ 100 | > 1.5
O=C(c1cnn2c(-c3ccc(N4CC(CO)C4)nc3)cccc12)N1CCCCC1 [Example 221, (7-(6-(3-(hydroxymethyl)azetidin-1-yl)pyridin-3-yl)pyrazolo[1,5-a]pyridin-3-yl)(piperidin-1-yl)methanone] | ≤ 100 | > 1.5
O=C(c1ncc(-c2cccc3c(C(=O)N4CCCCC4)cnn23)cc1Cl)N1CCC1 [Example 286, [7-[6-(azetidine-1-carbonyl)-5-chloro-3-pyridyl]pyrazolo[1,5-a]pyridin-3-yl]-(1-piperidyl)methanone] | ≤ 100 | > 1.5
O=C(Cc1cccnc1)Nc1ccc(-c2cccc3c(C(=O)N4CCCCC4)cnn23)cc1 [Example 274, N-(4-(3-(piperidine-1-carbonyl)pyrazolo[1,5-a]pyridin-7-yl)phenyl)-2-(pyridin-3-yl)acetamide] | ≤ 100 | > 1.5
N#CCCNC(=O)c1ccc(-c2cccc3c(C(=O)N4CCCCC4)cnn23)cn1 [Example 85, N-(2-cyanoethyl)-5-(3-(piperidine-1-carbonyl)pyrazolo[1,5-a]pyridin-7-yl)picolinamide] | ≤ 100 | > 1.5
